The values below come from patent USRE50528E1, “Compounds and compositions for modulating EGFR mutant kinase activities” (Yuhan Corporation, priority 2014, dated 2025).

For one assay, the target named is T1, EGFR mutant T790M (Homo sapiens, UniProt P00533, T790M).
T1 construct: truncated human JAK3, EGFR mutants such as del E746-A750; purchased Carna Biosciences
Put plainly: Kinase inhibition assay, EGFR mutant T790M.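 Further: truncated human EGFR mutant enzyme preincubated two hours with compound, then ATP plus ULight-PolyGT peptide for one hour, Europium-labeled antibody LANCE detection, IC50.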 Particulars: biochemical potency.

Assay [1] concerns the target T2, EGFR mutant Del19 (E746-A750) (Homo sapiens, UniProt P00533, DEL746-750).
T2 construct: truncated human JAK3, EGFR mutants such as del E746-A750; purchased Carna Biosciences
Put plainly: Kinase inhibition assay, EGFR del E746-A750.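 Further: truncated human EGFR mutant kinase, two-hour preincubation with compound, then one-hour reaction with ATP and ULight-PolyGT peptide, LANCE Europium-antibody phosphorylation readout, IC50.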 Particulars: read-out: EGFR mutants Del19 (E746-A750). It is filed as biochemical.

The next assay concerns the target T3, EGFR mutant L858R (Homo sapiens, UniProt P00533, L858R).
T3 construct: truncated human JAK3, EGFR mutants such as del E746-A750; purchased Carna Biosciences
Briefly: Kinase inhibition assay, EGFR L858R.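 Further: truncated human EGFR L858R kinase with compound preincubation, ULight-PolyGT peptide phosphorylation read by Europium-antibody Lance detection, IC50.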 It counts as biochemical. The following applies: read-out: EGFR mutants L858R.

In the next assay the target is T4, EGFR mutant L858R/T790M (Homo sapiens, UniProt P00533, L858R/T790M).
T4 construct: truncated human JAK3, EGFR mutants such as del E746-A750; purchased Carna Biosciences
Put plainly: Kinase inhibition assay, EGFR L858R/T790M.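 Further: truncated human enzyme preincubated two hours with compound, then one hour with one millimolar ATP and ULight-PolyGT peptide, Europium-labeled antibody detection, IC50.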 It is filed as biochemical. Particulars: read-out: EGFR mutants L858R/T790M.

For a further assay, the target named is T5, EGFR mutant Del19/T790M (Homo sapiens, UniProt P00533, DEL746-750/T790M).
T5 construct: truncated human JAK3, EGFR mutants such as del E746-A750; purchased Carna Biosciences
Briefly: Kinase inhibition assay, EGFR del E746-A750/T790M. It counts as biochemical. The following applies: read-out: EGFR mutants Del19/T790M.

The next assay concerns the target T6, SYK (Homo sapiens, UniProt P43405).
T6 construct: Purified human, full-length SYK, KDR; purchased Carna Biosciences
Put plainly: Kinase inhibition assay, SYK.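 Further: purified full-length human SYK pre-incubated 30 min with compound, then ULight-TK peptide phosphorylation for 1 h, detected with Europium-labeled antibody in Lance buffer.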 The following applies: biochemical potency. It is filed as biochemical.

T1 sequence (P00533 669-1210 T790M limits assumed): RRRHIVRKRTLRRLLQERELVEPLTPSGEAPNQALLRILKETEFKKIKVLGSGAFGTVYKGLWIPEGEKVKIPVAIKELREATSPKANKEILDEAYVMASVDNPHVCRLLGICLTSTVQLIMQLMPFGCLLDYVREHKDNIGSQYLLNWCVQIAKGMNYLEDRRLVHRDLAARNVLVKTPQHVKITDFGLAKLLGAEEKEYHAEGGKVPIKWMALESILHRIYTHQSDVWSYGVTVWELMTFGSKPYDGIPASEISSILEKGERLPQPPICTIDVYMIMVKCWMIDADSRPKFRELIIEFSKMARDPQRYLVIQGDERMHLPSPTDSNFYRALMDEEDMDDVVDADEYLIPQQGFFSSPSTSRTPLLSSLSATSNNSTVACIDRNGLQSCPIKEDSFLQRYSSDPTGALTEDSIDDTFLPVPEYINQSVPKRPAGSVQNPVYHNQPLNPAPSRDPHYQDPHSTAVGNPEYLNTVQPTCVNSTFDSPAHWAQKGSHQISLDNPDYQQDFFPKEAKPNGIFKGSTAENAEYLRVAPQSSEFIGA
T3 sequence (P00533 669-1210 L858R limits assumed): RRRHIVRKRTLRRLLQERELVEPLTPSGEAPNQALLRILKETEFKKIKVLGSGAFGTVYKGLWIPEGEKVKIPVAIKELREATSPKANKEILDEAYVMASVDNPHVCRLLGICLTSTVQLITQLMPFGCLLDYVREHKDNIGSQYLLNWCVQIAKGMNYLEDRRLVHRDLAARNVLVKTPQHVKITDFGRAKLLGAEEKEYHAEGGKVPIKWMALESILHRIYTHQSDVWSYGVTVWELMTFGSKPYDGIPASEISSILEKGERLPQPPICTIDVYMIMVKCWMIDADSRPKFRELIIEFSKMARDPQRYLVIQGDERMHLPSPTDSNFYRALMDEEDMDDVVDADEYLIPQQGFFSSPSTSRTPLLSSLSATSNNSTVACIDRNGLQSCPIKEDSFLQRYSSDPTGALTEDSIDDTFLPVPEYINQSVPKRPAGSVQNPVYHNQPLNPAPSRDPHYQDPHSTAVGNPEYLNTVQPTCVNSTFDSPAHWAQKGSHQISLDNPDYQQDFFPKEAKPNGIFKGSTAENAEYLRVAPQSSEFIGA
T5 sequence (P00533 with tags, fused parts or gaps DEL746-750/T790M limits assumed): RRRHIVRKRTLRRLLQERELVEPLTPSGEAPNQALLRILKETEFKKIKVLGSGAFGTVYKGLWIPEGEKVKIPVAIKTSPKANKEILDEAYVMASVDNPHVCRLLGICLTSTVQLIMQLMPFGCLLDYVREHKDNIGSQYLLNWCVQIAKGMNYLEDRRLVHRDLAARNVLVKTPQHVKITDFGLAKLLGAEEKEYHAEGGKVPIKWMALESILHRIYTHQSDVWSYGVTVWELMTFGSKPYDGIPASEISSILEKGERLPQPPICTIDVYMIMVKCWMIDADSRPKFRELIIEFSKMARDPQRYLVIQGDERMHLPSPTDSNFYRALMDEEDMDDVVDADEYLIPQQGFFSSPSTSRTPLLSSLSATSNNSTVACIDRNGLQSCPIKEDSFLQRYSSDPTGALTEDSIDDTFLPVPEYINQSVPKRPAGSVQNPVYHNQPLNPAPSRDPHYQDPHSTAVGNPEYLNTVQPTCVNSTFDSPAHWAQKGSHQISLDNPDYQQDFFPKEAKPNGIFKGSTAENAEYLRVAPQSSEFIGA
T4 sequence (P00533 669-1210 T790M/L858R limits assumed): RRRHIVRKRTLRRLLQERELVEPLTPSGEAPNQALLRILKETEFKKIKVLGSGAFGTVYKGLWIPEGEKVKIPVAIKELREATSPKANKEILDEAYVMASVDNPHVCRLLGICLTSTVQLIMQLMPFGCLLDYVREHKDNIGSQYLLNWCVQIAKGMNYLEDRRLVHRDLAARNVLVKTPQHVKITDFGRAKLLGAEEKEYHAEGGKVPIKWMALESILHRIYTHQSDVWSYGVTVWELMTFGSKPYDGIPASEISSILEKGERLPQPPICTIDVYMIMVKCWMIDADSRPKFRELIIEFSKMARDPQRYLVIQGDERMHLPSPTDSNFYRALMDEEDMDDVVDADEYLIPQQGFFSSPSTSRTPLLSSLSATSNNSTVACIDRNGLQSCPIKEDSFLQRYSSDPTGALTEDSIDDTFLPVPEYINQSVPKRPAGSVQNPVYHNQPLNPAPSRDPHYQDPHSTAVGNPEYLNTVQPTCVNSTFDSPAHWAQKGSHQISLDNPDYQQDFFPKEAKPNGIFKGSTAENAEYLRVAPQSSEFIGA
T2 sequence (P00533 with tags, fused parts or gaps DEL746-750 limits assumed): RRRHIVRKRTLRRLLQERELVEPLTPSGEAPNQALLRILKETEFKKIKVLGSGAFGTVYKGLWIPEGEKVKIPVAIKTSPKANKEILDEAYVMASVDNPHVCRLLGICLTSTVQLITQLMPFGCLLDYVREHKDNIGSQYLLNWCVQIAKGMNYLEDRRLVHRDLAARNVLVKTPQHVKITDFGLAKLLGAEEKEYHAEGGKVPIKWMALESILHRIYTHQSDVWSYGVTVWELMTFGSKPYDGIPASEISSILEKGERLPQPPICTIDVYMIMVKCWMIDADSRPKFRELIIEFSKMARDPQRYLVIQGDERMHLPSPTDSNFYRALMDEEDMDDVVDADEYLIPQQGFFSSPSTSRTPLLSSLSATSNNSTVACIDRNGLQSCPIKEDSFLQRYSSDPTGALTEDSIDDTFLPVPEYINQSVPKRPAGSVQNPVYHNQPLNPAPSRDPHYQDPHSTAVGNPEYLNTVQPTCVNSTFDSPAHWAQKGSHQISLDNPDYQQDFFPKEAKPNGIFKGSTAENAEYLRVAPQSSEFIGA

Consider `C=CC(=O)Nc1cc(Nc2nccc(-n3cc(CN(C)C)c(-c4ccc(F)cc4)n3)n2)c(OC)cc1N1CCOCC1` [Compound 6, N-(5-(4-(4-((dimethylamino)methyl)-3-(4-fluorophenyl)-1H-pyrazol-1-yl)pyrimidin-2-ylamino)-4-methoxy-2-morpholinophenyl)acrylamide], for which the IC50 against EGFR mutant T790M was 20 to 200 nM; in assay [1], 20 to 200 nM; at EGFR mutant L858R, 20 to 200 nM; at EGFR mutant L858R/T790M it was below 20 nM; on EGFR mutant Del19/T790M, below 20 nM; on SYK it was above 1000 nM.

For `C=CC(=O)Nc1cc(Nc2ncc(C)c(-n3cc(CN(C)C)c(C(C)(C)C)n3)n2)c(OC)cc1N1CCOCC1` [Compound 7, N-(5-(4-(3-tert-butyl-4-((dimethylamino)methyl)-1H-pyrazol-1-yl)-5-methylpyrimidin-2-ylamino)-4-methoxy-2-morpholinophenyl)acrylamide], the IC50 at EGFR mutant T790M is below 20 nM; in assay [1], below 20 nM; on EGFR mutant L858R it was below 20 nM; on EGFR mutant L858R/T790M, below 20 nM; at EGFR mutant Del19/T790M it was below 20 nM; against SYK it was above 1000 nM.

`C=CC(=O)Nc1cc(Nc2nccc(-n3cc(CN4CC(O)C4)c(C)n3)n2)c(OC)cc1N1CCOCC1` [Compound 15, N-(5-(4-(4-((3-hydroxyazetidin-1-yl)methyl)-3-methyl-1H-pyrazol-1-yl)pyrimidin-2-ylamino)-4-methoxy-2-morpholinophenyl)acrylamide]: the IC50 on EGFR mutant T790M was below 20 nM; in assay [1] it was below 20 nM; on EGFR mutant L858R, below 20 nM; at EGFR mutant L858R/T790M it was below 20 nM; on EGFR mutant Del19/T790M, below 20 nM; at SYK, 201 to 1000 nM.

Regarding `C=CC(=O)Nc1cc(Nc2ncc(C)c(-n3cc(CN4C[C@H](O)[C@H](OC)C4)cn3)n2)c(OC)cc1N1CCOCC1` [Compound 21, N-(5-(4-(4-(((3S,4R)-3-hydroxy-4-methoxypyrrolidin-1-yl)methyl)-1H-pyrazol-1-yl)-5-methylpyrimidin-2-ylamino)-4-methoxy-2-morpholinophenyl)acrylamide], the IC50 against EGFR mutant T790M is below 20 nM; in assay [1], below 20 nM; at EGFR mutant L858R it was 20 to 200 nM; at EGFR mutant L858R/T790M it was below 20 nM; on EGFR mutant Del19/T790M, below 20 nM; against SYK, 201 to 1000 nM.

As to `C=CC(=O)Nc1cc(Nc2ncc(C)c(-n3cc(CN(C)C)cn3)n2)c(OC)cc1N1CCOCC1` [Compound 22, N-(5-(4-(4-((dimethylamino)methyl)-1H-pyrazol-1-yl)-5-methylpyrimidin-2-ylamino)-4-methoxy-2-morpholinophenyl)acrylamide], the IC50 on EGFR mutant T790M was below 20 nM; in assay [1] it was below 20 nM; at EGFR mutant L858R, 20 to 200 nM; at EGFR mutant L858R/T790M it was below 20 nM; on EGFR mutant Del19/T790M, below 20 nM; against SYK, 20 to 200 nM.

On to `C=CC(=O)Nc1cc(Nc2ncc(C)c(-n3cc(CN4CC[C@H](O)C4)c(C)n3)n2)c(OC)cc1N1CCOCC1` [Compound 28, (S)—N-(5-(4-(4-((3-hydroxypyrrolidin-1-yl)methyl)-3-methyl-1H-pyrazol-1-yl)-5-methylpyrimidin-2-ylamino)-4-methoxy-2-morpholinophenyl)acrylamide], for which the IC50 at EGFR mutant T790M was below 20 nM; in assay [1] it was below 20 nM; at EGFR mutant L858R it was below 20 nM; at EGFR mutant L858R/T790M, below 20 nM; on EGFR mutant Del19/T790M, below 20 nM; against SYK it was 201 to 1000 nM.

On to `C=CC(=O)Nc1cc(Nc2ncc(C)c(-n3cc(CN4CC(O)C4)c(C)n3)n2)c(OC)cc1N1CCCCC1` [Compound 30, N-(5-(4-(4-((3-hydroxyazetidin-1-yl)methyl)-3-methyl-1H-pyrazol-1-yl)-5-methylpyrimidin-2-ylamino)-4-methoxy-2-(piperidin-1-yl)phenyl)acrylamide], for which the IC50 is below 20 nM on EGFR mutant T790M; below 20 nM in assay [1]; below 20 nM on EGFR mutant L858R; below 20 nM at EGFR mutant L858R/T790M; below 20 nM on EGFR mutant Del19/T790M; 20 to 200 nM at SYK.

`C=CC(=O)Nc1cc(Nc2ncc(C)c(-n3cc(CN4CC(O)C4)c(C)n3)n2)c(OC)cc1N(C)CCN(C)C` [Compound 31, N-(2-((2-(dimethylamino)ethyl)(methyl)amino)-5-(4-(4-((3-hydroxyazetidin-1-yl)methyl)-3-methyl-1H-pyrazol-1-yl)-5-methylpyrimidin-2-ylamino)-4-methoxyphenyl)acrylamide]: the IC50 was below 20 nM at EGFR mutant T790M; below 20 nM in assay [1]; below 20 nM on EGFR mutant L858R; below 20 nM at EGFR mutant L858R/T790M; below 20 nM on EGFR mutant Del19/T790M; 20 to 200 nM at SYK.

In the case of `C=CC(=O)Nc1cc(Nc2ncc(C)c(-n3cc(CN4CCOCC4)cn3)n2)c(OC)cc1N1CCN(C)CC1` [Compound 33, N-(4-methoxy-5-(5-methyl-4-(4-(morpholinomethyl)-1H-pyrazol-1-yl)pyrimidin-2-ylamino)-2-(4-methylpiperazin-1-yl)phenyl)acrylamide], the IC50 is below 20 nM at EGFR mutant T790M; 20 to 200 nM in assay [1]; 20 to 200 nM at EGFR mutant L858R; 20 to 200 nM at EGFR mutant L858R/T790M; below 20 nM at EGFR mutant Del19/T790M; above 1000 nM on SYK.

As to `C=CC(=O)Nc1cc(Nc2ncc(C)c(-n3cc(CN4CCC4)cn3)n2)c(OC)cc1N1CCN(C(C)=O)CC1` [Compound 37, N-(2-(4-acetylpiperazin-1-yl)-5-(4-(4-(azetidin-1-ylmethyl)-1H-pyrazol-1-yl)-5-methylpyrimidin-2-ylamino)-4-methoxyphenyl)acrylamide], the IC50 at EGFR mutant T790M was below 20 nM; in assay [1] it was below 20 nM; on EGFR mutant L858R, below 20 nM; at EGFR mutant L858R/T790M it was below 20 nM; at EGFR mutant Del19/T790M it was below 20 nM; against SYK, 201 to 1000 nM.

As to `C=CC(=O)Nc1cc(Nc2nccc(-n3cc(CN4CCC4)cn3)n2)c(OC)cc1N(C)C` [Compound 38, N-(5-(4-(4-(azetidin-1-ylmethyl)-1H-pyrazol-1-yl)pyrimidin-2-ylamino)-2-(dimethylamino)-4-methoxyphenyl)acrylamide], the IC50 is below 20 nM at EGFR mutant T790M; below 20 nM in assay [1]; below 20 nM at EGFR mutant L858R; below 20 nM at EGFR mutant L858R/T790M; 20 to 200 nM at EGFR mutant Del19/T790M; above 1000 nM at SYK.

Consider `C=CC(=O)Nc1cc(Nc2ncc(C)c(-n3cc(CN4CCC4)cn3)n2)c(OC)cc1N1CCCN(C)CC1` [Compound 41, N-(5-(4-(4-(azetidin-1-ylmethyl)-1H-pyrazol-1-yl)-5-methylpyrimidin-2-ylamino)-4-methoxy-2-(4-methyl-1,4-diazepan-1-yl)phenyl)acrylamide], for which the IC50 is below 20 nM against EGFR mutant T790M; below 20 nM in assay [1]; below 20 nM on EGFR mutant L858R; below 20 nM at EGFR mutant L858R/T790M; below 20 nM at EGFR mutant Del19/T790M; 201 to 1000 nM on SYK.

`C=CC(=O)Nc1cc(Nc2ncc(C)c(-n3cc(CN4C[C@H](O)[C@H](OC)C4)cn3)n2)c(OC)cc1N(C)CCN(C)C` [Compound 43, N-(2-((2-(dimethylamino)ethyl)(methyl)amino)-5-(4-(4-(((3S,4R)-3-hydroxy-4-methoxypyrrolidin-1-yl)methyl)-1H-pyrazol-1-yl)-5-methylpyrimidin-2-ylamino)-4-methoxyphenyl)acrylamide]: the IC50 on EGFR mutant T790M is below 20 nM; in assay [1] it was below 20 nM; on EGFR mutant L858R, below 20 nM; at EGFR mutant L858R/T790M, below 20 nM; on EGFR mutant Del19/T790M, below 20 nM; against SYK, above 1000 nM.

As to `C=CC(=O)Nc1cc(Nc2nccc(-n3cc(CN4CC(OC)C4)c(C)n3)n2)c(OC)cc1N1CCOCC1` [Compound 44, N-(4-methoxy-5-(4-(4-((3-methoxyazetidin-1-yl)methyl)-3-methyl-1H-pyrazol-1-yl)pyrimidin-2-ylamino)-2-morpholinophenyl)acrylamide], the IC50 was 201 to 1000 nM at EGFR mutant T790M; 20 to 200 nM in assay [1]; 20 to 200 nM at EGFR mutant L858R; 20 to 200 nM on EGFR mutant L858R/T790M; 20 to 200 nM at EGFR mutant Del19/T790M; above 1000 nM on SYK.

Turning to `C=CC(=O)Nc1cc(Nc2nccc(-n3cc(CN4CCCC4)c(-c4ccccc4)n3)n2)c(OC)cc1N1CCOCC1` [Compound 90, N-(4-methoxy-2-morpholino-5-(4-(3-phenyl-4-(pyrrolidin-1-ylmethyl)-1H-pyrazol-1-yl)pyrimidin-2-ylamino)phenyl)acrylamide], the IC50 in assay [1] was below 20 nM; at EGFR mutant L858R it was 20 to 200 nM; on EGFR mutant L858R/T790M, below 20 nM; on EGFR mutant Del19/T790M, below 20 nM; on SYK, above 1000 nM.

For `C=CC(=O)Nc1cc(Nc2ncc(F)c(-n3cc(C)c(CN4CCC4)c3)n2)c(OC)cc1N(C)C` [Compound 142, N-(5-(4-(3-(azetidin-1-ylmethyl)-4-methyl-1H-pyrrol-1-yl)-5-fluoropyrimidin-2-ylamino)-2-(dimethylamino)-4-methoxyphenyl)acrylamide], the IC50 in assay [1] is below 20 nM; at EGFR mutant L858R, below 20 nM; at EGFR mutant L858R/T790M, below 20 nM; on EGFR mutant Del19/T790M, below 20 nM; against SYK, 201 to 1000 nM.
